One data set deals with T1, hDDR2 (Homo sapiens, UniProt Q16832).
T1 construct: purchased Eurofins
T1 sequence (Q16832 22-855): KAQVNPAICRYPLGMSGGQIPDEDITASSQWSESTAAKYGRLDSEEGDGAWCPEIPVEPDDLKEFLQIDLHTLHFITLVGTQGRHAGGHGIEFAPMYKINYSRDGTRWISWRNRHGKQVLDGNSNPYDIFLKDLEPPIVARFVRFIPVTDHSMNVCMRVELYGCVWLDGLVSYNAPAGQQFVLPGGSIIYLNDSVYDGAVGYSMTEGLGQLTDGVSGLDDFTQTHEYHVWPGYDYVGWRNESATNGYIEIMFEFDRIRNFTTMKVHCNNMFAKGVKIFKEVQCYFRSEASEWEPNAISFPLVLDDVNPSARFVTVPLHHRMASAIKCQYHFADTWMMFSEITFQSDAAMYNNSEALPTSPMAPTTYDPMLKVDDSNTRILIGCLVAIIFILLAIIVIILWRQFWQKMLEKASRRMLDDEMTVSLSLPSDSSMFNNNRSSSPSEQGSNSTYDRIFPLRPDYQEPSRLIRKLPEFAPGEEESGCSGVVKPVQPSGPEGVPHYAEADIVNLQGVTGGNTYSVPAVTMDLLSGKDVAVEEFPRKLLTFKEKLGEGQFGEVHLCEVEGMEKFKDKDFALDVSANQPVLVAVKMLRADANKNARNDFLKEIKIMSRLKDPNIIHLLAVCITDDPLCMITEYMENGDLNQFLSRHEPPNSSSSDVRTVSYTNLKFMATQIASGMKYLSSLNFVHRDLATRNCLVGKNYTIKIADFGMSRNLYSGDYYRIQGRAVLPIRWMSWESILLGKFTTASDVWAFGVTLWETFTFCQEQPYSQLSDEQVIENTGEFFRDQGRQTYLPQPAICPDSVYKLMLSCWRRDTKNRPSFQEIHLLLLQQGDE
As to the kind of experiment: KinaseProfiler radiometric biochemical kinase assay (Eurofins). As for the experimental part:
The experimental procedures were performed by Eurofins. The activity of the molecules against hDDR1 and hDDR2 kinases was assessed using KinaseProfiler^67. […] The enzymatic reaction processed in the presence of Mg^2+ cations and ATP at room temperature for 40 minutes and terminated by addition of phosphoric acid. […] All the compounds were prepared in 100% DMSO. […] The biological evaluation of selectivity against non-target kinases was performed in Dundee Eurofins, using Scan Max Delta Panel [10 μM ATP] KinaseProfiler^68.

Data set [1] concerns CTGF expression in MRC-5 cells. The data set is described as follows: MRC-5 fibrosis assay, TGF-β stimulated (Western blot). Type of data set: cell-based. As for the experimental part: (§1) After 20 h growth in the reduced serum medium, the cells were treated with indicated doses of compounds for 30 minutes. Subsequently, the cells were stimulated with 10 ng/mL TGF-β (R&D Systems, 240-B-002) for 48 or 72 hours.
For orientation: In western blotting, separated proteins are transferred to a membrane and probed.

Data set [2] relates to α-actin expression in MRC-5 cells. The description is as above. Type of data set: cell-based. As for the experimental part: as §1
Another data set deals with LX-2 cells. As to the kind of experiment: Cytotoxicity, CellTiter-Glo cell viability assay. It is filed as cell-based, human. The following applies: 72 h. As for the experimental part: LX-2 cells were seeded into 96 well plates in the presence of a compound and allowed to grow for 72 h before CellTiter-Glo® Luminescent Cell Viability Assay was carried out according the manufacturer's instruction.
On the technique in general: In ATP-based viability assays light output follows the ATP content of the culture.

The next data set has as its target T2, CYP1A2 (Homo sapiens, UniProt P05177).
T2 construct: from tissue; host or cells: human liver microsomes (HLM)
T2 sequence (P05177 1-516): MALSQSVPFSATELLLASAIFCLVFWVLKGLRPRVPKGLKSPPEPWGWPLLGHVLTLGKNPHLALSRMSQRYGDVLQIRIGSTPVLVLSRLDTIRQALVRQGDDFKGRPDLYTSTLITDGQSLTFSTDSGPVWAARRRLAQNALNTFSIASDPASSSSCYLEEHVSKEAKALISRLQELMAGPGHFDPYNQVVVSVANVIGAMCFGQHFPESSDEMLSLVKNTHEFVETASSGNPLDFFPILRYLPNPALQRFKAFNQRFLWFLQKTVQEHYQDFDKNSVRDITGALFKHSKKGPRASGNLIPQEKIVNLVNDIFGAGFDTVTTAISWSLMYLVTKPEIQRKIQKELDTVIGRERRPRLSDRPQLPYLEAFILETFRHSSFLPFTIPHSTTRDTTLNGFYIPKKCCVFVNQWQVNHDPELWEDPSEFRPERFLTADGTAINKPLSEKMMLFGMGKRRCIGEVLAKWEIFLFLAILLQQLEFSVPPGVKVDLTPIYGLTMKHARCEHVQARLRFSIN
As to the kind of experiment: Cytochrome inhibition in HLM. Type of data set: in vitro ADME. As for the experimental part:
Water used in the assay and analysis was purified by ELGA Lab purification systems. Potassium phosphate buffer (PB) in concentration of 100 mM and MgCl2 in concentration of 33 mM were used. […] Microsomes were pulled out of the −80° C. freezer to thaw on ice, labeled the date and put back to freezer immediately after using. 20 μL of the substrates solutions were added to corresponding wells. 20 μL PB were added to Blank wells. 2 μL of the test compounds and positive control working solution were added to corresponding wells. Then, HLM working solution was prepared. 158 μL of the HLM working solution was added to all wells of incubation plate. The plate was pre-warmed for about 10 min at 37° C. water bath. Then, NADPH cofactor solution was prepared. 20 μL NADPH cofactor was added to all incubation wells. The solution was mixed and incubated for 10 minutes at 37° C. water bath. At the time point, the reaction was terminated by adding 400 μL cold stop solution (200 ng/mL Tolbutamide and 200 ng/mL Labetalol in ACN). The samples were centrifuged at 4000 rpm for 20 minutes to precipitate protein. 200 μL supernatant was transferred to 100 μL HPLC water and shaken for 10 min. XL fit was used to plot the percent of vehicle control versus the test compound concentrations, and for non-linear regression analysis of the data.

The term CC50 denotes the concentration that lowers cell viability or growth by half. Low values mean greater toxicity to the cells, high ones lower toxicity to the cells. What is called IC50 is the concentration at which inhibition is half-maximal. On to `Cc1ccc2c(Nc3cccc(C(F)(F)F)c3)noc2c1C#Cc1cnc2cccnn12` [Compound 1], for which the “activity towards DDR2 weaker than for DDR1” value on hDDR2 (DDR2 vs DDR1) was determined as 23 times. In data set [1] (all the concentrations used), the “effect on CTGF expression” value was “no inhibition potency”. Further, in data set [2] (MRC-5), the “dose dependence of effect on α-actin expression” value is listed as “robust dose-dependent effect”. The CC50 in the data set with LX-2 cells was 3.3 µM. The compound further gave an IC50 on CYP1A2 of 7.36 µM.
For the compound `O=C(Nc1cccc(C(=O)N2CCN(c3ccnc4[nH]ccc34)C2)c1)c1cccc(C(F)(F)F)c1` [Compound 2], the “SI (selectivity index) DDR2 vs DDR1” value on hDDR2 was determined as 3.6. The IC50 at hDDR2 (read-out: IC50 towards DDR2 kinase) turned out to be 76 nM; on CYP1A2, 10.6 µM. Besides, in data set [1] (MRC-5), the “concentration of highest activity in CTGF assay (close to negative control)” value stood at 0.041 µM. The “concentration of maximum inhibition of α-actin expression” value in data set [2] (MRC-5) is 0.37 µM. In addition, the “maximum effect on α-actin expression” value in data set [2] (at 0.37 μM) was determined as 1.5 fold. In the data set with LX-2 cells, this compound registered a CC50 of 7.3 µM.

For the origin of these results see patent publication US12293809B2, “Workflow for generating compounds with biological activity against a specific biological target” (INSILICO MEDICINE IP LIMITED, priority 2019, dated 2025).
